Reference: patent US9012446B2, “Amino-oxazines and amino-dihydrothiazine compounds as beta-secretase modulators and methods of use” (Amgen Inc., priority 2010, dated 2015)
Where two headings read alike, the source gives them in different places.

Assays:
BACE = BACE (Homo sapiens, UniProt P56817); assay: In vitro enzymatic BACE FRET assay; type: biochemical; settings: average IC50, enzyme assay; read-out: BACE 1 FRET assay
How it was run: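 Fluorescence […] after Tris quench reports cleavage of a 50 nM quenched peptide substrate over 1 h. Beforehand, 0.2 nM enzyme sits 1 h with inhibitor dilutions. Buffer: 0.05 M acetate pH 4.2, 100 uM genapol, 10% DMSO final.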

Aβ40 = assay: In vitro BACE cell-based assay (Aβ40 sandwich ELISA, cells stably expressing APP); settings: Homo sapiens
How it was run: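 Read-out is Aβ40 in cell supernatants, quantified by sandwich ELISA (capture 3 h, detection 2 h, both 4° C) with Delfia time-resolved fluorescence. Cells stably expressing APP were dosed across 10 concentrations from 100 μM or 10 μM top, 0.1% DMSO final; IC50 fitted from percent of control.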

Abeta 40 = assay: In vivo inhibition of beta-secretase: Abeta 40 reduction in CSF and brain of the rat; settings: after 4 hrs; for inhibition in vivo at 10 mg/kg: 10 mpk
How it was run: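 Male Sprague Dawley rats (200 g) were given test compound by oral gavage in 2% HPMC, 1% Tween80, pH 2.2, while a vehicle-only group served as control. After sacrifice, brains were homogenized in 0.2% DEA/50 mM NaCl or 0.5% TritonX-100 in Tris-buffered saline and centrifuged at 355,000 g, 4° C. for 30 minutes. Abeta40 in CSF and brain supernatants was quantified by ECL sandwich ELISA (biotinylated-4G8 capture, Fab40 detection) as percent reduction versus vehicle.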

[1] = HEK293, average IC50, cell assay, HEK cells
[2] = Abeta 40, rat CSF, read-out: % reduction of rat CSF levels at 10 pmk
[3] = Abeta 40, rat brain, read-out: % reduction of rat brain levels at 10 mpk
[4] = HEK293, average IC50, read-out: HEK cell assay

Sequence of BACE (P56817 46-501, species assumed): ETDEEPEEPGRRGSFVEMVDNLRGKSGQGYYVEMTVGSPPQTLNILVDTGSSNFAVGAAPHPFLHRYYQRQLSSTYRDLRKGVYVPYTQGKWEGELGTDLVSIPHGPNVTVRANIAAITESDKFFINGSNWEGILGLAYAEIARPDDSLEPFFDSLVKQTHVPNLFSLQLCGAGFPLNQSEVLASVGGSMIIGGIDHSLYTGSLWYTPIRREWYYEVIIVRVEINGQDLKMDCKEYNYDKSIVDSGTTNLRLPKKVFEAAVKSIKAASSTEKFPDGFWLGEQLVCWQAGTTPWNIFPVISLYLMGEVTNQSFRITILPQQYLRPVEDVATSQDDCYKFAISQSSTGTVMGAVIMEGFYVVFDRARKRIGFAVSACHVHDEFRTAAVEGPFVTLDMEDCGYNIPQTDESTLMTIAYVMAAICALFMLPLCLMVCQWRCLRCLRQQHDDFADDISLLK

| Compound | IC50 (BACE) | IC50 (Aβ40; [1]) | IC50 (Aβ40; [4]) | inhibition in vivo at 10 mg/kg (Abeta 40; [2]) | inhibition in vivo at 10 mg/kg (Abeta 40; [3]) | % reduction of rat CSF levels (Abeta 40; Abeta 40, rat CSF) | % reduction of rat brain levels (Abeta 40; Abeta 40, rat brain) |
| --- | --- | --- | --- | --- | --- | --- | --- |
| NC1=N[C@]2(COC1)c1cc(-c3ccnc(F)c3)ccc1Oc1ccc(-c3cccnc3F)cc12 [Example 65, (R)-2′-(2-fluoropyridin-3-yl)-7′-(2-fluoropyridin-4-yl)-2,6-dihydrospiro[[1,4]oxazine-3,9′-xanthen]-5-amine] | 1.6 nM | 18.2 nM | – | 14% | 55% | – | – |
| NC1=N[C@@]2(COC1)c1cc(-c3cccnc3F)ccc1Oc1c2cc(N2CCC(F)(F)CC2)nc1F [Example 129, (S)-3-(4,4-difluoropiperidin-1-yl)-1-fluoro-7-(2-fluoropyridin-3-yl)-2′,6′-dihydrospiro[chromeno[2,3-c]pyridine-5,3′-[1,4]oxazin]-5′-amine 2,2,2-trifluoroacetate] | 0.9 nM | 4.9 nM | – | 22% | 17% | – | – |
| NC1=N[C@@]2(CCO1)c1cc(-c3cccnc3)ccc1Oc1c2cc(-c2ccnc(F)c2)nc1F [Example 239, (S)-1-fluoro-3-(2-fluoropyridin-4-yl)-7-(pyridin-3-yl)-5′,6′-dihydrospiro[chromeno[2,3-c]pyridine-5,4′-[1,3]oxazin]-2′-amine] | 35 nM | – | 16.1 nM | 68% | 48% | – | – |
| CC1(C#Cc2cnc3c(c2)[C@]2(CCOC(N)=N2)c2cc(-c4cccnc4F)ccc2O3)COC1 [Example 61, (S)-7-(2-fluoropyridin-3-yl)-3-((3-methyloxetan-3-yl)ethynyl)-5′,6′-dihydrospiro[chromeno[2,3-b]pyridine-5,4′-[1,3]oxazin]-2′-amine] | 2.8 nM | – | 2.4 nM | 70% | 55% | – | – |
| CC(C)(C)COc1cc2c(c(F)n1)Oc1ccc(-c3cccnc3F)cc1[C@@]21COCC(N)=N1 [Example 250, (5S)-3-(2,2-dimethylpropoxy)-1-fluoro-7-(2-fluoro-3-pyridinyl)-6′H-Spiro[chromeno[2,3-c]pyridine-5,3′-[1,4]oxazin]-5′-amine] | 0.6 nM | – | 2.8 nM | 72% | 72% | – | – |
| NC1=N[C@@]2(CCO1)c1cc(-c3cncc(F)c3)ccc1Oc1cnc(-c3ccnc(F)c3)cc12 [Example 145, (S)-7-(5-fluoropyridin-3-yl)-3-(2-fluoropyridin-4-yl)-5′,6′-dihydrospiro[chromeno[2,3-c]pyridine-5,4′-[1,3]oxazin]-2′-amine] | 5 nM | 4 nM | – | 78% | 59% | – | – |
| CC(C)(C)C#Cc1cnc2c(c1)[C@]1(CCOC(N)=N1)c1cc(-c3cccnc3F)ccc1O2 [Example 270, (S)-3-(3,3-dimethylbut-1-ynyl)-7-(2-fluoropyridin-3-yl)-5′,6′-dihydrospiro[chromeno[2,3-b]pyridine-5,4′-[1,3]oxazin]-2′-amine] | 3.1 nM | – | 4.9 nM | 70% | 52% | – | – |
| CC1(C#Cc2cc(F)c3c(c2)[C@]2(COCC(N)=N2)c2cc(-c4cccnc4F)ccc2O3)COC1 [Example 41, (S)-4′-fluoro-7′-(2-fluoropyridin-3-yl)-2′-((3-methyloxetan-3-yl)ethynyl)-2,6-dihydrospiro[[1,4]oxazine-3,9′-xanthen]-5-amine] | 0.5 nM | 1.9 nM | – | 13% | 23% | – | – |

The remaining molecules from weak to strong by IC50 (BACE), led by results:

| IC50 (BACE) | IC50 (Aβ40; [1]) | IC50 (Aβ40; [4]) | Compound | inhibition in vivo at 10 mg/kg (Abeta 40; [2]) | inhibition in vivo at 10 mg/kg (Abeta 40; [3]) | % reduction of rat CSF levels (Abeta 40; Abeta 40, rat CSF) | % reduction of rat brain levels (Abeta 40; Abeta 40, rat brain) |
| --- | --- | --- | --- | --- | --- | --- | --- |
| 6.1 nM | – | 8.5 nM | CC(C)(F)COc1cc(F)c2c(c1)[C@]1(CCOC(N)=N1)c1cc(-c3cccnc3)ccc1O2 [Example 176, (S)-4′-fluoro-2′-(2-fluoro-2-methylpropoxy)-7′-(pyridin-3-yl)-5,6-dihydrospiro[[1,3]oxazine-4,9′-xanthen]-2-amine] | 30% | 13% | – | – |
| 5.8 nM | 5 nM | – | CC(C)(C)C#Cc1cc2c(cn1)Oc1ccc(-c3cccnc3F)cc1[C@@]21CCOC(N)=N1 [Example 154, (S)-3-(3,3-dimethylbut-1-ynyl)-7-(2-fluoropyridin-3-yl)-5′,6′-dihydrospiro[chromeno[2,3-c]pyridine-5,4′-[1,3]oxazin]-2′-amine] | 57% | 37% | – | – |
| 0.6 nM | 1.2 nM | – | NC1=N[C@@]2(COC1)c1cc(-c3cccnc3F)ccc1Oc1cnc(N3CCC(F)(F)CC3)cc12 [Example 32, (S)-3-(4,4-difluoropiperidin-1-yl)-7-(2-fluoropyridin-3-yl)-2′,6′-dihydrospiro[chromeno[2,3-c]pyridine-5,3′-[1,4]oxazin]-5′-amine] | 37% | 26% | – | – |
| 0.6 nM | 1.2 nM | – | Cc1ccc(-c2cnc3c(c2)[C@]2(COCC(N)=N2)c2cc(-c4cccnc4F)ccc2O3)cc1 [Example 90, (S)-7-(2-fluoropyridin-3-yl)-3-(p-tolyl)-2′,6′-dihydrospiro[chromeno[2,3-b]pyridine-5,3′-[1,4]oxazin]-5′-amine] | – | – | 7% at 3 mpk | 0% at 3 mpk |
